Data from publication PMC11505911, “Design and Synthesis of Small Molecule Probes of MDA-9/Syntenin” (Biomolecules, 2024).
Values joined by “and” are separate entries in the source; they are usually repeats but may differ in a detail not shown here. Equal values may be shown once. Read-outs that look alike come from different tables or passages of the source.

Key:
MDA-9/Syntenin [1] = target: T1, MDA-9/Syntenin (Homo sapiens, UniProt O00560); design: method as in printed; settings: pre-PDZ1i molecules studied en route to the discovery of PDZ1i; ref not given; cited from earlier work
T1 construct: made in house
T1 sequence (O00560 1-298): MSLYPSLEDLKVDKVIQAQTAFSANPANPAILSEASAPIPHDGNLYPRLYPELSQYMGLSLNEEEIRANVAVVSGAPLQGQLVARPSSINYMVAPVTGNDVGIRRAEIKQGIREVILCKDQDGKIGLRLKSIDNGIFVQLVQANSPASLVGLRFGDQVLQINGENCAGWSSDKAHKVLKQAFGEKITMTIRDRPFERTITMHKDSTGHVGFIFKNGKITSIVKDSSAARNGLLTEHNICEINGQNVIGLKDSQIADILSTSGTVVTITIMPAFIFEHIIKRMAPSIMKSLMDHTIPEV

MDA-9/Syntenin [2] = target: T1, MDA-9/Syntenin; test: Fluorescence polarization titration of ligands into MDA-9/Syntenin; type: binding; settings: 20 mM Tris-HCl, 100 mM NaCl, 0.01% PEG800, 0.05% Tween20, pH 7.4; single-site fit; minimum of two titrations
Method: Spectrofluorimetric titrations were performed on a Horiba QM400 spectrometer (HORIBA Scientific, Piscataway, NJ, USA). Excitation and emission wavelengths of 280 nm and 340 nm (600 nm for the reference emission wavelength) were used, with 5 nm excitation and 12 nm emission band widths, as described earlier. Experiments were performed in ratiometric mode, with excitation and emission polarizers set to 0,0 angles at room temperature. The titration buffer was 20 mM Tris-HCl buffer, pH 7.4. The stock concentrations of protein and ligands were 40 and 300–1000 μM, respectively. Whereas the protein was prepared in the titration buffer, the ligands were prepared in DMSO. The ligands (either URD001, NGI03, or NVS125) were titrated into the protein solution in aliquots, and saturable changes in fluorescence polarization were used to calculate the affinity. […] The emission intensities were corrected for dilution effects (<10% overall). The observed change in fluorescence polarization relative to initial signal (F0) was fitted using a standard single-site binding model to obtain the dissociation constant (KD) and the maximal change in fluorescence polarization (ΔF) at saturation.
We then explored fluorescence polarization (λEX = 280 nm, λEM = 340 nm; λREF = 600 nm) in 20 mM Tris-HCl containing 100 mM NaCl, 0.01% PEG800, and 0.05% Tween20, pH 7.4. Polarization relies on the change in molecular diffusion of the protein in the presence of a ligand as a probe of interaction. This technique worked well for PDZ1i, which presented a classic hyperbolic binding profile. […] For NGI03 and URD001, KDs of 1.1 and 3.0 μM, respectively, were measured. […] This implies that no reliable fit of the data could be obtained. Yet, based on the profile, the KD is likely to be more than 200 μM.

MDA-9/Syntenin [3] = target: T1, MDA-9/Syntenin; settings: cited from earlier work
[4] = design: method as in printed; settings: stated in introduction; ref not given; cited from earlier work
[5] = Aqueous solubility (qualitative); type: physicochemical; settings: authors' observation

Compound	IC50 (MDA-9/Syntenin [1]) [µM]	also measured
Cc1cc(=O)n2nc(C(=O)Nc3ccc(O)c(F)c3)nc2[nH]1 [112G2]	147	
Cc1cc(=O)n2nc(C(=O)Nc3ccc(N)cc3)nc2[nH]1 [112E7]	944	
Cc1cc(NC(=O)OC(C)(C)C)c(C)cc1CCCC(c1nnc(-c2ccccc2)o1)c1nnc(-c2ccccc2)o1 [CMPD10]	151	
Cc1cc(=O)n2nc(C(=O)Nc3ccc(O)cc3)nc2[nH]1 [112D11]	245	
Cc1cc(NC(=O)c2nc3[nH]c4c(c(=O)n3n2)CCC4)c(C)cc1NC(=O)CCc1nnc(-c2ccccc2)o1 [PDZ1i]		Kd (MDA-9/Syntenin [2]): 78 µM and ~78 µM; Kd (MDA-9/Syntenin [3]; binding domain PDZ1): 60 to 70 µM; aqueous solubility [4]: poor aqueous solubility
Cc1cc(=O)n2nc(C(=O)Nc3cc(Cl)c(N)c(Cl)c3)nc2[nH]1 [112G4]	34.3	
Cc1ccc(-c2nnc(CCC(=O)Cc3cc(C)c(C(=O)O)cc3C)o2)cc1 [NVS125]		Kd (MDA-9/Syntenin [2]): > 200 µM; aqueous solubility [5]: good aqueous solubility
O=C(Nc1ccc(O)c(F)c1)c1nc2[nH]c3c(c(=O)n2n1)CCC3 [112F12]	166	
O=C(Nc1ccc(O)c(Cl)c1)c1nc2[nH]c3c(c(=O)n2n1)CCC3 [112G3]	119	
Neurexin hexapeptide: hexapeptide epitope from neurexin binding the PDZ2 domain (TNEYYV)		Kd (MDA-9/Syntenin [3]; binding domain PDZ2): 100 µM
Cc1cc(NC(=O)c2nc3[nH]c4c(c(=O)n3n2)CCC4)c(C)cc1CCCC(c1nnc(-c2ccccc2)o1)c1nnc(-c2ccccc2)o1 [URD001, N-(4-(4,4-bis(5-phenyl-1,3,4-oxadiazol-2-yl)butyl)-2,5-dimethylphenyl)-8-oxo-5,6,7,8-tetrahydro-4H-cyclopenta[d][1,2,4]triazolo [1,5-a]pyrimidine-2-carboxamide]		Kd (MDA-9/Syntenin [2]): 3 µM; aqueous solubility [5]: aqueous solubility issues
Cc1cc(NC(=O)c2nc3[nH]c4c(c(=O)n3n2)CCC4)c(C)cc1NC(=O)CC(c1nnc(-c2ccccc2)o1)c1nnc(-c2ccccc2)o1 [NGI03, N-(4-(3,3-bis(5-phenyl-1,3,4-oxadiazol-2-yl)propanamido)-2,5-dimethylphenyl)-8-oxo-5,6,7,8-tetrahydro-4H-cyclopenta[d][1,2,4]triazolo[1,5-a]pyrimidine-2-carboxamide]		Kd (MDA-9/Syntenin [2]): 1.1 µM; aqueous solubility [5]: aqueous solubility issues
O=C(Nc1ccc(O)cc1)c1nc2[nH]c3c(c(=O)n2n1)CCC3 [112E12]	1610	
IVMT-Rx-3: polyethylene glycol conjugation from truncated PDZ1i with a PDZ2-binding hexapeptide (TNEYYF)		Kd (MDA-9/Syntenin [3]; binding domain PDZ1, PDZ2): 63 µM
Cc1cc(=O)n2nc(COc3ccccc3)nc2[nH]1 [30A9]	197	
Cc1c(C)c(NC(=O)c2nc3[nH]c4c(c(=O)n3n2)CCC4)c(C)c(C)c1N [113B8]	151	
Nc1ccc(NC(=O)c2nc3[nH]c4c(c(=O)n3n2)CCC4)cc1 [112G11]	263	
Ephrin hexapeptide: hexapeptide epitope from ephrin B binding the PDZ2 domain (NIYYKV; Paralogue and species inferred; terminal caps unknown)		Kd (MDA-9/Syntenin [3]; binding domain PDZ2): 790 µM
Cc1cc(=O)n2nc(C(=O)Nc3cc(Cl)c(O)c(Cl)c3)nc2[nH]1 [112G1]	57.3	
